One experiment has as its target T1, human DGKα (Homo sapiens, UniProt P23743).
T1 construct: TVMV protease cleavage site (C); Hexa-His (C); made in house; host or cells: Sf9 insect cells (baculovirus, Bac-to-Bac)
The experiment in a line: DGKα LIPGLO assay (extruded liposome substrate), in vitro DGK inhibition. Type of experiment: biochemical. Conditions: read-out: DGKa LIPGLO IC50.

The target in another experiment is T2, human DGKζ (Homo sapiens, UniProt Q13574).
T2 construct: TVMV protease cleavage site (C); Hexa-His (C); made in house; host or cells: Sf9 insect cells (baculovirus, Bac-to-Bac)
The experiment in a line: DGKζ LIPGLO assay (extruded liposome substrate), in vitro DGK inhibition. Type of experiment: biochemical. Conditions: read-out: DGKz LIPGLO IC50.

In another experiment the test system is Human venous whole blood. The experiment in a line: Human whole blood IFN-γ assay.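 Further: blood from healthy donors exposed to compound for 1 h before stimulation with anti-CD3 and anti-CD28 at 1 µg/mL each, IFN-γ quantified in supernatant by AlphaLISA.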 The class given is cell-based. As to conditions: human whole blood, read-out: INFg Whole Blood Normalized Agonist EC50.
Where [1] appears, read: Homo sapiens, 24 h, normalized to 3 μM reference compound with anti-CD3 plus anti-CD28 as 100% activation.
Setting [2] is: normalized to 3 μM reference compound with anti-CD3 plus anti-CD28 as 100% activation.
[3] abbreviates: anti-CD3 plus anti-CD28, 24 hours, 3 μM reference compound = 100% activation.
Setting [4] is: Homo sapiens, 24 h, anti-CD3 plus anti-CD28, 24 hours, 3 μM reference compound = 100% activation.

Where two headings read alike, the source gives them in different places.

T2 sequence (Q13574 with tags, fused parts or gaps isoform Q13574-4): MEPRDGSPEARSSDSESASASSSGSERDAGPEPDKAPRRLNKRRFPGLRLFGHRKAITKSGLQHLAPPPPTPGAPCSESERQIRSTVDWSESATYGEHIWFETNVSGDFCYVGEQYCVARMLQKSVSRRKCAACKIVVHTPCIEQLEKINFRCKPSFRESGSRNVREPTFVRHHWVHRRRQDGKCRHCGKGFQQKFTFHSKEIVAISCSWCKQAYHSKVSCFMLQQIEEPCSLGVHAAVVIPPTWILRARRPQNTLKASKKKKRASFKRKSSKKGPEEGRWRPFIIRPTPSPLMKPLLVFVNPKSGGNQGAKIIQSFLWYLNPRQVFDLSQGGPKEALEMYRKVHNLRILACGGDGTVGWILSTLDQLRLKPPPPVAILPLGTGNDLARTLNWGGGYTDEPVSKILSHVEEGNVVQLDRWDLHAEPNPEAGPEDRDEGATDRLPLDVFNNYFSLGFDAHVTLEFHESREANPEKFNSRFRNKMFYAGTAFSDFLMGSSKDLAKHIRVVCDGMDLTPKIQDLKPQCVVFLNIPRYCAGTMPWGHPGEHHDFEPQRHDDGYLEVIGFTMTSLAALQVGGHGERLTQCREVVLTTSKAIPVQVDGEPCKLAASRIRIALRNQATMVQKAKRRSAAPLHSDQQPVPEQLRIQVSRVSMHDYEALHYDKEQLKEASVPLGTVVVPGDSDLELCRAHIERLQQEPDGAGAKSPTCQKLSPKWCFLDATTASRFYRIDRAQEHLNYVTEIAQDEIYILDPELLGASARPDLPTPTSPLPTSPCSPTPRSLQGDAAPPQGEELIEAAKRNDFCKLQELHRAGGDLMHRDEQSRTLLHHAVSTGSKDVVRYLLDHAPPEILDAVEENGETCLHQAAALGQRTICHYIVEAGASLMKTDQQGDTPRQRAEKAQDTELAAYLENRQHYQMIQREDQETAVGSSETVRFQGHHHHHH
T1 sequence (P23743 with tags, fused parts or gaps): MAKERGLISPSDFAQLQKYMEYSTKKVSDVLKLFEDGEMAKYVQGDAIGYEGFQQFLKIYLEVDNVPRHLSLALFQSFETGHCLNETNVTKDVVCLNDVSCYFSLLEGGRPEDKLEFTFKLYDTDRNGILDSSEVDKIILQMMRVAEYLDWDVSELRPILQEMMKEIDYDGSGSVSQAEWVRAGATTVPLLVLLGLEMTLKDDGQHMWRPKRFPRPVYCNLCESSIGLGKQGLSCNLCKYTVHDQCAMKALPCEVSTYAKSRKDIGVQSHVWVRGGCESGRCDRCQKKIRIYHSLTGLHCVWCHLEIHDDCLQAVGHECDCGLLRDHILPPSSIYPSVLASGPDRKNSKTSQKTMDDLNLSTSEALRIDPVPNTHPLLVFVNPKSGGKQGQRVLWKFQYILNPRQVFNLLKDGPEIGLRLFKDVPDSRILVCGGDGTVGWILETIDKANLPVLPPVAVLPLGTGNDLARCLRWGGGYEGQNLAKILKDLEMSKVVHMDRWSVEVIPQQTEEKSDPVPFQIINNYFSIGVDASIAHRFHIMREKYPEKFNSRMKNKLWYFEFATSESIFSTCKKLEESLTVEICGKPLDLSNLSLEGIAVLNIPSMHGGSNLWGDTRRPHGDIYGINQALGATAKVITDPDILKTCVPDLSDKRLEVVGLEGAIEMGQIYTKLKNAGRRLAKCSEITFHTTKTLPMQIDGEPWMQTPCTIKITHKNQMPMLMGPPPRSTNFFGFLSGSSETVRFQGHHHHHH
Method for Human venous whole blood: Human Whole Blood IFN-γ Assay
Human venous whole blood (22.5 μL per well), obtained from healthy donors, was pre-treated with compounds for one hour at 37° C. in a humidified 95% air/5% CO2 incubator. The blood was stimulated with 2.5 μL anti-human CD3 and anti-CD28 mAb at a final concentration of 1 μg/mL each for 24 hours at 37° C. IFN-γ in the supernatants was measured using AlphLISA kit (Cat # AL217).

Broadly, the IC50 is the concentration at which inhibition is half-maximal. By EC50 is commonly meant the concentration giving half of the maximal effect. With `C[C@@H]1CN(c2cc(=O)n(C)c3ccc(C#N)nc23)[C@@H](C)CN1C(c1ccc(F)c(F)c1)c1ccccn1` (mixture of isomers) [Example 366, 8-((2S,5R)-4-((3,4-difluorophenyl)(pyridin-2-yl)methyl)-2,5-dimethylpiperazin-1-yl)-5-methyl-6-oxo-5,6-dihydro-1,5-naphthyridine-2-carbonitrile], the results for the IC50 on human DGKα (liposome (LIPGLO) assay) and at human DGKζ (liposome (LIPGLO) assay) were 0.57 µM and 2 µM, respectively. For the same compound, the EC50 in the experiment with Human venous whole blood (setting [1]) was 0.49 µM.
The corresponding values for `C[C@@H]1CN(c2cc(=O)n(C)c3ccc(C#N)nc23)[C@@H](C)CN1C(c1ccc(Cl)cc1)c1ccccn1` (mixture of isomers) [Example 403, 8-((2S,5R)-4-((4-chlorophenyl)(pyridin-2-yl)methyl)-2,5-dimethylpiperazin-1-yl)-5-methyl-6-oxo-5,6-dihydro-1,5-naphthyridine-2-carbonitrile] are 0.14 µM, 0.46 µM and 0.17 µM.
As for `COC(=O)C1CN(c2cc(=O)n(C)c3ccc(C#N)nc23)CCN1C(c1ccc(F)cc1)c1ccc(F)cc1OC` (single isomer, unassigned) [Example 70, Methyl 4-(6-cyano-1-methyl-2-oxo-1,2-dihydro-1,5-naphthyridin-4-yl)-1-((4-fluoro-2-methoxyphenyl)(4-fluorophenyl)methyl)piperazine-2-carboxylate], the IC50 on human DGKα (liposome (LIPGLO) assay) was found to be 220 µM; at human DGKζ (liposome (LIPGLO) assay), 19 µM. Also, in the experiment on Human venous whole blood (setting [2]), the EC50 was 10 µM.
The corresponding values for `COC(=O)C1CN(c2cc(=O)n(C)c3ccc(C#N)nc23)CCN1C(c1ccc(Cl)cc1)c1ccc(Cl)cc1` (single isomer, unassigned) [Example 96, methyl 1-(bis(4-chlorophenyl)methyl)-4-(6-cyano-1-methyl-2-oxo-1,2-dihydro-1,5-naphthyridin-4-yl)piperazine-2-carboxylate] are 240 µM, 14 µM and 13 µM.
The corresponding values for `Cn1c(=O)cc(N2CCN(C(c3ccc(F)cc3)c3ccc(F)cc3)CC2c2ccccc2)c2nc(C#N)ccc21` (single isomer, unassigned) [Example 155, 8-(4-(bis(4-fluorophenyl)methyl)-2-phenylpiperazin-1-yl)-5-methyl-6-oxo-5,6-dihydro-1,5-naphthyridine-2-carbonitrile] are 240 µM, 240 µM and 20 µM.
For the compound `CC(c1ccc(C(F)(F)F)cc1)N1CCN(c2c(C#N)c(=O)n(C)c3ccc(C#N)nc23)C[C@H]1C` (single isomer, unassigned) [Example 961], the 50% inhibitory concentration (IC50) at human DGKα (DGKα liposome (LIPGLO) assay) worked out at 1.5 µM. Further, the EC50 in the experiment on Human venous whole blood (setting [3]) is 20 µM.
As to `CC(c1csc(C(F)(F)F)n1)N1C[C@H](C)N(c2cc(=O)n(C)c3ccc(C#N)nc23)C[C@H]1C` (single isomer, unassigned) [Example 1274], the IC50 on human DGKα (liposome (LIPGLO) assay) is 0.59 µM. Besides, in the experiment with Human venous whole blood (setting [2]), the EC50 is 3.3 µM.
As for `CC(c1cc(C(C)(C)C)on1)N1C[C@H](C)N(c2cc(=O)n(C)c3ccc(C#N)nc23)C[C@H]1C` (single isomer, unassigned) [Example 1284], the IC50 at human DGKα (liposome (LIPGLO) assay) worked out at 0.76 µM. Moreover, the EC50 in the experiment on Human venous whole blood (setting [2]) is 2.8 µM.
For `C[C@@H]1CN(c2cc(=O)n(C)c3ccc(C#N)nc23)[C@@H](C)CN1C(c1ccc(F)cc1)c1ccccc1P(C)(C)=O` (single isomer, unassigned) [Example 1288], the half-inhibitory concentration (IC50) at human DGKα (liposome (LIPGLO) assay) was 290 µM. In addition, in the experiment on Human venous whole blood (setting [1]), the EC50 stood at 8.8 µM.
The matching figures for `C[C@@H]1CN(c2c(F)c(=O)n(C)c3ccc(C#N)nc23)[C@@H](C)CN1C(c1ccc(Cl)cc1)c1ccc(OC(F)(F)F)cc1` (stereo partly drawn) [Example 323, 8-((2S,5R)-4-((4-chlorophenyl)(4-(trifluoromethoxy)phenyl)methyl)-2,5-dimethylpiperazin-1-yl)-7-fluoro-5-methyl-6-oxo-5,6-dihydro-1,5-naphthyridine-2-carbonitrile]: 2.1 µM and 5.7 µM.
`C[C@@H]1CN(c2c(F)c(=O)n(C)c3ccc(C#N)nc23)[C@@H](C)CN1C(c1ccc(F)cc1)c1ccc(C(F)(F)F)cc1` (stereo partly drawn) [Example 326, 7-fluoro-8-((2S,5R)-4-((4-fluorophenyl)(4-(trifluoromethyl)phenyl)methyl)-2,5-dimethylpiperazin-1-yl)-5-methyl-6-oxo-5,6-dihydro-1,5-naphthyridine-2-carbonitrile]: the IC50 on human DGKζ (liposome (LIPGLO) assay) is 6.5 µM. For the same compound, the EC50 in the experiment on Human venous whole blood (setting [2]) was found to be 20 µM.
Turning to `Cc1noc(C(c2ccc(F)cc2)N2C[C@H](C)N(c3cc(=O)n(C)c4ccc(C#N)nc34)C[C@H]2C)n1` (stereo partly drawn) [Example 746], on human DGKζ (DGKζ liposome (LIPGLO) assay), the half-inhibitory concentration (IC50) turned out to be 0.17 µM. The half-maximal effective concentration (EC50) in the experiment with Human venous whole blood (setting [3]) was 0.96 µM.
On to `COc1ccc(C(c2ccc(F)cc2)N2C[C@H](C)N(c3c(C#N)c(=O)n(C)c4ccc(C#N)nc34)C[C@H]2C)nc1` (stereo partly drawn) [Example 838], for which the half-inhibitory concentration (IC50) on human DGKζ (DGKζ liposome (LIPGLO) assay) came out at 2.1 µM. In the experiment on Human venous whole blood (setting [4]), the EC50 was 17 µM.
As to `Cc1cccc(C(c2ccc(F)cc2)N2CCN(c3c(C#N)c(=O)n(C)c4ccc(C#N)nc34)C[C@H]2C)c1` (stereo partly drawn) [Example 916], the IC50 on human DGKζ (DGKζ liposome (LIPGLO) assay) turned out to be 0.45 µM. Further, the EC50 in the experiment on Human venous whole blood (setting [3]) came to 1.9 µM.
On to `C[C@@H]1CN(c2c(C#N)c(=O)n(C)c3ccc(C#N)nc23)CCN1Cc1ccccc1OC(F)(F)F` [Example 999], for which the 50% inhibitory concentration (IC50) on human DGKα (DGKα liposome (LIPGLO) assay) was 0.27 µM. For the same compound, the EC50 in the experiment on Human venous whole blood (setting [4]) was determined as 17 µM.
Consider `CC[C@@H]1CN(c2cc(=O)n(C)c3ccc(C#N)nc23)[C@@H](C)CN1C(c1ccc(Cl)cc1)c1ccc(F)cn1` (stereo partly drawn) [Example 1110], for which the IC50 at human DGKζ (liposome (LIPGLO) assay) was determined as 0.16 µM. In addition, the EC50 in the experiment on Human venous whole blood (setting [2]) is 1.3 µM.
On to `CC(c1cc(OC(F)(F)F)ccc1F)N1C[C@H](C)N(c2cc(=O)n(C)c3ccc(C#N)nc23)C[C@H]1C` (stereo partly drawn) [Example 1202], for which, on human DGKα (liposome (LIPGLO) assay), the IC50 amounted to 2.2 µM. For the same compound, in the experiment on Human venous whole blood (setting [2]), the EC50 was 1.3 µM.
Regarding `CC(c1ccc(Cl)cc1F)N1C[C@H](C)N(c2cc(=O)n(C)c3ccc(C#N)nc23)C[C@H]1C` (stereo partly drawn) [Example 1230], the IC50 on human DGKζ (liposome (LIPGLO) assay) is 0.16 µM. In addition, the EC50 in the experiment on Human venous whole blood (setting [1]) was determined as 0.1 µM.
The corresponding values for `C[C@@H]1CN(c2cc(=O)n(C)c3ccc(C#N)nc23)[C@@H](C)CN1C(c1ccc(F)cc1)c1ccccc1P(C)(C)=O` (stereo partly drawn) [Example 1287, 8-((2S,5R)-4-((2-(dimethylphosphoryl)phenyl)(4-fluorophenyl)methyl)-2,5-dimethylpiperazin-1-yl)-5-methyl-6-oxo-5,6-dihydro-1,5-naphthyridine-2-carbonitrile] are 3.7 µM and 8.4 µM.
The matching figures for `CC[C@@H]1CN(c2cc(=O)n(C)c3ccc(C#N)nc23)[C@@H](C)CN1Cc1ccc(OC(F)(F)F)cc1F` [Example 1347]: 0.17 µM and 0.73 µM.
The matching figures for `CC(c1ccc(OC(F)(F)F)cc1)N1C[C@H](C)N(c2cc(=O)n(C)c3ccc(C#N)nc23)C[C@H]1CN(C)C` (stereo partly drawn) [Example 1413, 8-((2S,5R)-5-((dimethylamino)methyl)-2-methyl-4-(1-(4-(trifluoromethoxy)phenyl)ethyl)piperazin-1-yl)-5-methyl-6-oxo-5,6-dihydro-1,5-naphthyridine-2-carbonitrile]: 1.8 µM and 1.4 µM.
Take `Cc1oc(-c2cccc(F)c2)nc1CN1C[C@H](C)N(c2cc(=O)n(C)c3ccc(C#N)nc23)C[C@H]1C` [Example 1429]: the IC50 on human DGKα (liposome (LIPGLO) assay) amounted to 48 µM. Besides, the EC50 in the experiment with Human venous whole blood (setting [2]) was determined as 20 µM.
The matching figures for `Cc1oc(-c2cccc(F)c2)nc1CN1C[C@H](C)N(c2cc(=O)n(C)c3ccc(C#N)nc23)C[C@H]1C` [Example 1430]: 21 µM and 7 µM.
